According to ChEMBL document CHEMBL6115028, “An Amazing 30-Year Journey around the DABO Family: A Medicinal Chemistry Lesson on a Versatile Class of Non-nucleoside HIV-1 Reverse Transcriptase Inhibitors” (J Med Chem, 2025):

Columns and labels:
[1] = tested on: Human immunodeficiency virus 1; test: Antiviral activity against HIV-1 NL4-3 infected in human MT2 cells assessed as reduction in viral replication assessed as inhibition of viral growth incubated for 72 hrs by ELISA; format: functional, organism-based; settings: Human immunodeficiency virus 1, NL4-3, MT2, 72 h
[2] = Selectivity index, ratio of CC50 for human MT4 cells to EC50 for antiviral activity against HIV1 infected in human MT4 cells; format: toxicity, cell-based; settings: read-out: Ratio CC50/EC50
[3] = tested on: Human immunodeficiency virus 1; test: Antiviral activity against HIV1 IIIB infected in human MT4 cells assessed as reduction in virus-induced cytopathic effect incubated for 4 days by MTT assay; format: functional, organism-based; settings: Human immunodeficiency virus 1, IIIB, MT4, 96 h
[4] = tested on: Human immunodeficiency virus 1; test: Antiviral activity against HIV-1 IIIB infected in human C8166 cells assessed as reduction in virus -induced cytopathic effect measured after 48 hrs by CellTiter-Glo Luminescent cell viability assay; format: functional, organism-based; settings: Human immunodeficiency virus 1, IIIB, C8166, 48 h
C8166 = test: Cytotoxicity against human C8166 cells assessed as reduction in cell viability; format: functional
[5] = Selectivity index, ratio of CC50 for cytotoxicity against human MT2 cells to EC50 for antiviral activity against HIV-1 IIIB infected in human MT2 cells; format: toxicity, cell-based; settings: read-out: Ratio CC50/EC50
[6] = Cytotoxicity against african green monkey Vero cells assessed as reduction in cell viability measured after 72 hrs by MTT assay; format: toxicity, cell-based; settings: chlorocebus sabaeus
[7] = tested on: Human immunodeficiency virus 1; test: Antiviral activity against HIV-1 IIIB infected in human C8166 cells; format: functional, organism-based; settings: Human immunodeficiency virus 1, IIIB
[8] = tested on: Human immunodeficiency virus 2; test: Antiviral activity against HIV-2 ROD infected in human MT4 cells assessed as virus-induced cytopathic effect incubated for 5 days by MTT assay; format: functional, organism-based; settings: Human immunodeficiency virus 2, ROD, MT4, 120 h
MT4 [9] = test: Cytotoxicity against human MT4 cells assessed as reduction in cell growth incubated for 3 days by CellTiter-Glo luminescent assay; format: functional; settings: MT4, 72 h, time 3 day
[10] = tested on: Human immunodeficiency virus 1; test: Antiviral activity against wild type HIV-1 NL4-3 infected in human MT4 cells assessed as reduction in viral replication measured for 72 hrs by ELISA analysis; format: functional, organism-based; settings: Human immunodeficiency virus 1, NL4-3, MT4, 72 h
[11] = tested on: Human immunodeficiency virus 1; test: Antiviral activity against HIV-1 NL4-3 harboring infected K103N mutant infected in human MT4 cells assessed as reduction in viral replication; format: functional, organism-based; settings: Human immunodeficiency virus 1, NL4-3, MT4
[12] = tested on: Human immunodeficiency virus 1; test: Antiviral activity against wild-type HIV-1 IIIB infected in human MT4 cells assessed as reduction in virus-induced cytopathic effect incubated for 5 days by MTT assay; format: functional, organism-based; settings: Human immunodeficiency virus 1, IIIB, MT4, 120 h
MT4 [13] = test: Cytotoxicity against human MT4 cells assessed as reduction in cell growth after 5 days by MTT assay; format: functional; settings: MT4, 120 h, time 5 day
MT4 [14] = test: Cytotoxicity against human MT4 cells; format: functional
[15] = tested on: Human immunodeficiency virus 1; test: Antiviral activity against wild type HIV-1 NL4-3 infected in human MT4 cells assessed as reduction in viral replication; format: functional, organism-based; settings: Human immunodeficiency virus 1, NL4-3, MT4
[16] = tested on: Human immunodeficiency virus 1; test: Antiviral activity against HIV-1 NL4-3 harboring infected Y181C mutant infected in human MT4 cells assessed as reduction in viral replication; format: functional, organism-based; settings: Human immunodeficiency virus 1, NL4-3, MT4
[17] = read-out: ED50 (the source's name)

## CCC(C)Sc1nc(O)c(C)c(Cc2ccccc2)n1 (stereo unspecified)
[1]
  EC50: 200 nM

## Cc1c(O)nc(SC2CCCCC2)nc1Cc1ccccc1
[2]
  selectivity ratio: > 530
[3]
  EC50: 600 nM

## CCC(C)Sc1nc(O)cc(Cc2ccccc2)n1 (stereo unspecified)
[1]
  EC50: 80 nM

## CCC(C)Sc1nc(O)cc(Cc2cccc(C)c2)n1 (stereo unspecified)
[2]
  selectivity ratio: > 578
[3]
  EC50: 600 nM

## Cc1c(O)nc(SC2CCCC2)nc1Cc1ccccc1
[2]
  selectivity ratio: > 555
[3]
  EC50: 800 nM

## Oc1cc(Cc2ccccc2)nc(SC2CCCCC2)n1
[2]
  selectivity ratio: > 412
[3]
  EC50: 800 nM

## CCC(C)Sc1nc(O)cc(Cc2c(Cl)cccc2Cl)n1 (stereo unspecified)
[4]
  EC50: 140 nM
C8166
  CC50: > 200000 nM
[5]
  selectivity ratio: > 1430
[6]
  CC50 at 72 h: > 200000 nM

## CCC(C)Sc1nc(O)c(C)c(Cc2c(Cl)cccc2Cl)n1 (stereo unspecified)
[4]
  EC50: 50 nM
C8166
  CC50: > 200000 nM
[5]
  selectivity ratio: > 4000
[6]
  CC50 at 72 h: > 200000 nM

## CCc1c(Cc2ccccc2)nc(SCC(=O)c2ccc(OC)cc2)[nH]c1=O
[7]
  EC50: 45 nM
[8]
  EC50: 18900 nM
MT4 [9]
  CC50: 178000 nM

## COc1ccc(C(=O)CSc2nc(Cc3ccccc3)c(C(C)C)c(=O)[nH]2)cc1
[7]
  EC50: 30 nM
[8]
  EC50: 13400 nM
MT4 [9]
  CC50: 203000 nM

## COc1ccc(/C=C/CSc2nc(C(C)c3c(F)cccc3F)c(C)c(=O)[nH]2)cc1 (stereo unspecified)
[10]
  EC50: 2 nM

## CCc1c(C(C)c2c(F)cccc2F)nc(SC/C=C/c2ccc(OC)cc2)[nH]c1=O (stereo unspecified)
[10]
  EC50: 2 nM

## CCc1c(C(C)c2c(F)cccc2F)nc(SC/C=C/c2ccc([N+](=O)[O-])cc2)[nH]c1=O (stereo unspecified)
[10]
  EC50: 4 nM

## COc1ccc(CSc2nc(C(C)c3c(Cl)cccc3Cl)c(C)c(=O)[nH]2)cc1 (stereo unspecified)
[10]
  EC50: 1 nM
[11]
  EC50: 5720 nM

## COc1ccc(CSc2nc(C(C)c3c(F)cccc3F)c(C)c(=O)[nH]2)cc1 (stereo unspecified)
[10]
  EC50: 2 nM

## Cc1c(C(C)c2c(F)cccc2F)nc(SCc2ccc([N+](=O)[O-])cc2)[nH]c1=O (stereo unspecified)
[10]
  EC50: 3 nM
[11]
  EC50: 650 nM

## Cc1c(O)nc(SCC(C)C)nc1Cc1ccccc1
[2]
  selectivity ratio: 162
[3]
  EC50: 800 nM

## CSCSc1nc(O)c(C)c(Cc2ccccc2)n1
[1]
  EC50: 1200 nM

## Cc1cccc(Cc2nc(SC3CCCC3)nc(O)c2C)c1
[2]
  selectivity ratio: > 530
[3]
  EC50: 600 nM

## CSCSc1nc(O)c(C(C)C)c(Cc2ccccc2)n1
[1]
  EC50: 40 nM

## CCc1c(O)nc(SCSC)nc1Cc1ccccc1
[1]
  EC50: 800 nM

## Cc1c(C(C)c2c(F)cccc2F)nc(SCc2ccc(C#N)cc2)[nH]c1=O (stereo unspecified)
[10]
  EC50: 7 nM

## Cc1c(C(C)c2c(F)cccc2F)nc(NC(C)C)[nH]c1=O (stereo unspecified)
[12]
  EC50: 20 nM
MT4 [13]
  CC50: > 200000 nM

## Cc1c(Cc2c(Cl)cccc2Cl)nc(SCc2cn(Cc3ccc(S(N)(=O)=O)cc3)nn2)[nH]c1=O
MT4 [14]
  CC50: 95500 nM

## Cc1c(Cc2c(Cl)cccc2Cl)nc(SCC(=O)Nc2ccc(F)c(F)c2)[nH]c1=O
[2]
  selectivity ratio: > 387
[7]
  EC50: 690 nM
MT4 [9]
  CC50: > 265000 nM

## Cc1c(Cc2c(Cl)cccc2Cl)nc(SCC(=O)Nc2ccc(Br)cc2)[nH]c1=O
[2]
  selectivity ratio: > 1330
[7]
  EC50: 180 nM
MT4 [9]
  CC50: > 243000 nM

## Cc1c(Cc2c(Cl)cccc2Cl)nc(SCC(=O)Nc2ccc(Cl)cc2)[nH]c1=O
[2]
  selectivity ratio: > 836
[7]
  EC50: 320 nM
MT4 [9]
  CC50: > 266000 nM

## Cc1c(Cc2c(Cl)cccc2Cl)nc(SCC(=O)Nc2ccc([N+](=O)[O-])cc2)[nH]c1=O
[2]
  selectivity ratio: 264
[7]
  EC50: 990 nM
MT4 [9]
  CC50: 45800 nM

## CC(C)CCSc1nc(Cc2c(F)cccc2I)cc(=O)[nH]1
[4]
  EC50: 50 nM
C8166
  CC50: > 200000 nM
[5]
  selectivity ratio: > 4000
[6]
  CC50 at 72 h: > 200000 nM

## CCC(C)Sc1nc(Cc2c(F)cccc2I)cc(=O)[nH]1 (stereo unspecified)
[4]
  EC50: 50 nM
C8166
  CC50: > 200000 nM
[5]
  selectivity ratio: > 4000
[6]
  CC50 at 72 h: > 200000 nM

## C#CCOC(=O)[C@H](C)NP(=O)(Oc1ccccc1)Oc1nc(N(C)C)nc(C(C)c2c(F)cccc2F)c1C (stereo partly specified)
[15]; read-out: EC50
  EC50: 3 nM
[16]
  EC50: 500 nM

## CCOC(=O)[C@H](C)NP(=O)(Oc1ccccc1)Oc1nc(N(C)C)nc(C(C)c2c(F)cccc2F)c1C (stereo partly specified)
[15]; read-out: EC50
  EC50: 6 nM
[16]
  EC50: 1000 nM

## COC(=O)[C@H](C)NP(=O)(Oc1ccccc1)Oc1nc(N(C)C)nc(C(C)c2c(F)cccc2F)c1C (stereo partly specified)
[15]; read-out: EC50
  EC50: 7 nM
[16]
  EC50: 1200 nM

## Cc1c(OP(=O)(N[C@@H](C)C(=O)OCc2ccccc2)Oc2ccccc2)nc(N(C)C)nc1C(C)c1c(F)cccc1F (stereo partly specified)
[15]; read-out: EC50
  EC50: 10 nM
[16]
  EC50: 1100 nM

## CC(C)CCSc1nc(Cc2c(F)cccc2F)cc(=O)[nH]1
[4]
  EC50: 50 nM
C8166
  CC50: > 200000 nM
[5]
  selectivity ratio: > 4000
[6]
  CC50 at 72 h: > 200000 nM

## CCCCNc1nc(C(C)c2c(F)cccc2F)c(C)c(=O)[nH]1 (stereo unspecified)
[12]
  EC50: 40 nM

## COc1ccc(C(=O)CSc2nc(Cc3ccccc3)c(C)c(=O)[nH]2)cc1
[7]
  EC50: 370 nM
[8]
  EC50: 420 nM
MT4 [9]
  CC50: > 290000 nM

## Cc1c([C@H](C)c2c(F)cccc2F)nc(SC2CCCCC2)[nH]c1=O
[2]
  selectivity ratio: > 10000
[6]
  CC50 at 72 h: > 200000 nM

## CC(C)c1c(Cc2ccccc2)nc(SCC(=O)c2ccc(F)cc2)[nH]c1=O
[7]
  EC50: 78 nM
[8]
  EC50: 32200 nM
MT4 [9]
  CC50: 186000 nM

## CC(=O)c1ccc(Cn2cc(CSc3nc(Cc4c(Cl)cccc4Cl)c(C)c(=O)[nH]3)nn2)cc1
MT4 [14]
  CC50: 32500 nM

## CCSCSc1nc(=O)c(CC)c(Cc2cccc3ccccc23)[nH]1
[15]; [17]
  EC50: 2700 nM

## CCCNc1nc(Cc2c(F)cccc2F)c(C)c(=O)[nH]1
[12]
  EC50: 20 nM
MT4 [13]
  CC50: > 200000 nM

## CCc1c(Cc2ccccc2)nc(SC(C)CC)[nH]c1=O (stereo unspecified)
[1]
  EC50: 40 nM

## CCc1c(Cc2cccc3ccccc23)n(CSC)c(=O)[nH]c1=O
[15]; [17]
  EC50: 370 nM

## CCC(C)Sc1nc(Cc2ccccc2)c(C(C)C)c(=O)[nH]1 (stereo unspecified)
[1]
  EC50: 100 nM

## Cc1c(Cc2ccccc2)nc(SCC(=O)c2ccc(F)cc2)[nH]c1=O
[7]
  EC50: 180 nM
[8]
  EC50: 275000 nM
MT4 [9]
  CC50: 275000 nM

## CSCSc1nc(Cc2ccccc2)cc(=O)[nH]1
[1]
  EC50: 20000 nM

## CCc1c(Cc2cccc3ccccc23)[nH]c(SCSC)nc1=O
[15]; [17]
  EC50: 4600 nM

## CCc1c(Cc2ccccc2)nc(SCC(=O)c2ccc(F)cc2)[nH]c1=O
[7]
  EC50: 70 nM
[8]
  EC50: 16300 nM
MT4 [9]
  CC50: 240000 nM

## Cc1c(OP(=O)(N[C@@H](C)C(=O)OC(C)(C)C)Oc2ccccc2)nc(N(C)C)nc1C(C)c1c(F)cccc1F (stereo partly specified)
[15]; read-out: EC50
  EC50: 8 nM
[16]
  EC50: 1000 nM

## CCOCn1c(Cc2cccc3ccccc23)c(CC)c(=O)[nH]c1=O
[15]; [17]
  EC50: 50 nM

## Cc1c(O)nc(SCC(C)C)nc1C(C)c1c(F)cccc1F (stereo unspecified)
[2]
  selectivity ratio: 28600
[6]
  CC50 at 72 h: 200000 nM

## CC(c1cc(O)nc(SC2CCCCC2)n1)c1c(F)cccc1F (stereo unspecified)
[2]
  selectivity ratio: > 6670
[6]
  CC50 at 72 h: > 200000 nM

## CCCCSc1nc(O)c(C)c(C(C)c2c(F)cccc2F)n1 (stereo unspecified)
[2]
  selectivity ratio: 14000
[6]
  CC50 at 72 h: 112000 nM

## CCC(C)Sc1nc(O)cc(C(C)c2c(F)cccc2F)n1 (stereo unspecified)
[2]
  selectivity ratio: > 6670
[6]
  CC50 at 72 h: > 200000 nM

## Cc1c(O)nc(SC2CCCCC2)nc1C(C)c1c(F)cccc1F (stereo unspecified)
[2]
  selectivity ratio: > 33300
[6]
  CC50 at 72 h: > 200000 nM

## CCC(C)Sc1nc(O)cc(Cc2c(F)cccc2F)n1 (stereo unspecified)
[4]
  EC50: 40 nM
C8166
  CC50: > 200000 nM
[5]
  selectivity ratio: > 5000
[6]
  CC50 at 72 h: > 200000 nM
